According to ChEMBL document CHEMBL1201862, “PubChem BioAssay data set” (2004):
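Method: 48-hour compound exposure of cells in 96-well plates, five concentrations, linear interpolation of endpoints. The concentration for 50% growth inhibition is given as GI50.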 Activity calls are given as the source filed them. Rule as the data show it: active = GI50 up to about 1.1 µM and inactive = higher.

Columns and labels:
Test in all cases: growth of human tumour cells (NCI), 48 h
[1] = tested on: 786-0
[2] = tested on: A498
[3] = tested on: A549
[4] = tested on: ACHN
[5] = tested on: BT-549
[6] = tested on: CAKI-1
[7] = tested on: CCRF-CEM
[8] = tested on: COLO 205
[9] = tested on: DU-145
[10] = tested on: EKVX
[11] = tested on: HCC 2998
[12] = tested on: HCT-116
[13] = tested on: HCT-15
[14] = tested on: HL-60
[15] = tested on: HOP-62
[16] = tested on: HOP-92
[17] = tested on: HT-29
[18] = tested on: Hs-578T
[19] = tested on: IGROV-1
[20] = tested on: K562
[21] = tested on: KM12
[22] = tested on: LOX IMVI
[23] = tested on: M14
[24] = tested on: MCF7
[25] = tested on: MDA-MB-231
[26] = tested on: MDA-MB-435
[27] = tested on: MOLT-4
[28] = tested on: Malme-3M
[29] = tested on: NCI-H23
[30] = tested on: NCI-H460
[31] = tested on: NCI-H522
[32] = tested on: NCI/ADR-RES
[33] = tested on: OVCAR-3
[34] = tested on: OVCAR-4
[35] = tested on: OVCAR-5
[36] = tested on: OVCAR-8
[37] = tested on: PC-3
[38] = tested on: RPMI-8226
[39] = tested on: RXF 393
[40] = tested on: SF-268
[41] = tested on: SF-295
[42] = tested on: SK-MEL-28
[43] = tested on: SK-MEL-2
[44] = tested on: SK-MEL-5
[45] = tested on: SK-OV-3
[46] = tested on: SN12C
[47] = tested on: SNB-19
[48] = tested on: SNB-75
[49] = tested on: SW-620
[50] = tested on: T47D
[51] = tested on: TK-10
[52] = tested on: U-251
[53] = tested on: UACC-257
[54] = tested on: UACC-62
[55] = tested on: UO-31
[56] = tested on: MDA-N
[57] = tested on: NCI-H226
[58] = tested on: SF-539
[59] = tested on: SR

With `O=C(/C=C1\N=C(c2ccccc2)N(c2ccc3c(c2)Sc2cc(N4C(=O)/C(=C/C(=O)/C=C/c5ccccc5)N=C4c4ccccc4)ccc2N3)C1=O)/C=C/c1ccccc1` the GI50 [1] was 42.2 µM (inactive), the GI50 [2] was 27.9 µM (inactive) and the GI50 [3] was > 100 µM (inactive). For the same compound, the GI50 [4] was > 100 µM (inactive), the GI50 [5] was 23.5 µM (inactive) and the GI50 [6] was 42.6 µM (inactive). The GI50 [7] was 24.4 µM (inactive), the GI50 [8] was > 100 µM (inactive) and the GI50 [9] was > 100 µM (inactive). The GI50 [10] was 85.7 µM (inactive), the GI50 [11] was > 100 µM (inactive) and the GI50 [12] was > 100 µM (inactive). For the same compound, the GI50 [13] was greater than 100 µM, the GI50 [14] was 40.6 µM (inactive) and the GI50 [15] was 48.8 µM (inactive). The GI50 [16] was 67.5 µM (inactive), the GI50 [17] was > 100 µM (inactive) and the GI50 [18] was 33.2 µM (inactive). The GI50 [19] was 37.2 µM (inactive), the GI50 [20] was 30.8 µM (inactive) and the GI50 [21] was > 100 µM (inactive). The GI50 [22] was 30.5 µM (inactive), the GI50 [23] was 64 µM (inactive) and the GI50 [24] was 23.9 µM (inactive). The GI50 [25] was 38 µM (inactive), the GI50 [26] was 22 µM (inactive) and the GI50 [27] was 41.4 µM (inactive). For the same compound, the GI50 [28] was 26.1 µM (inactive), the GI50 [29] was 50.4 µM (inactive) and the GI50 [30] was 58.7 µM (inactive). For the same compound, the GI50 [31] was 20.9 µM (inactive), the GI50 [32] was 41.6 µM (inactive) and the GI50 [33] was 24.9 µM (inactive). For the same compound, the GI50 [34] was 20.8 µM (inactive), the GI50 [35] was 22.4 µM (inactive) and the GI50 [36] was 42.5 µM (inactive). The GI50 [37] was 19.5 µM (inactive), the GI50 [38] was 31.6 µM (inactive) and the GI50 [39] was 27.3 µM (inactive). For the same compound, the GI50 [40] was 69.5 µM (inactive), the GI50 [41] was 23.4 µM (inactive) and the GI50 [42] was 65.2 µM (inactive). For the same compound, the GI50 [43] was 18.4 µM (inactive), the GI50 [44] was 18.7 µM (inactive) and the GI50 [45] was 18.3 µM (inactive). For the same compound, the GI50 [46] was 36.8 µM (inactive), the GI50 [47] was 29.7 µM (inactive) and the GI50 [48] was 17.3 µM (inactive). For the same compound, the GI50 [49] was 67.6 µM (inactive), the GI50 [50] was 63.7 µM (inactive) and the GI50 [51] was 45.1 µM (inactive). The GI50 [52] was 24.2 µM (inactive), the GI50 [53] was 27.4 µM (inactive) and the GI50 [54] was 18.2 µM (inactive). The GI50 [55] was 81.1 µM (inactive).
With `COc1cc(Nc2nc3cc(C(F)(F)F)ccc3nc2C(=O)O)cc(OC)c1OC` the GI50 [1] was 52.8 µM (inactive), the GI50 [2] was 77.8 µM (inactive) and the GI50 [3] was 64.4 µM (inactive). For the same compound, the GI50 [4] was 65.6 µM (inactive), the GI50 [5] was 34.9 µM (inactive) and the GI50 [6] was 30.7 µM (inactive). For the same compound, the GI50 [7] was 29.4 µM (inactive), the GI50 [8] was 45.5 µM (inactive) and the GI50 [9] was 35.1 µM (inactive). The GI50 [10] was 33.3 µM (inactive), the GI50 [11] was 61 µM (inactive) and the GI50 [12] was 32.7 µM (inactive). The GI50 [13] was 39.6 µM, the GI50 [14] was 55.2 µM (inactive) and the GI50 [15] was 44.3 µM (inactive). The GI50 [16] was 29.6 µM (inactive), the GI50 [17] was 49.7 µM (inactive) and the GI50 [18] was 31.7 µM (inactive). For the same compound, the GI50 [19] was 66.1 µM (inactive), the GI50 [21] was 41.5 µM (inactive) and the GI50 [22] was 32.1 µM (inactive). For the same compound, the GI50 [23] was 40.6 µM (inactive), the GI50 [24] was 66.5 µM (inactive) and the GI50 [25] was 21.8 µM (inactive). For the same compound, the GI50 [26] was 45.6 µM (inactive), the GI50 [56] was 33.3 µM (inactive) and the GI50 [27] was 39.7 µM (inactive). For the same compound, the GI50 [28] was 54.1 µM (inactive), the GI50 [57] was 32.9 µM (inactive) and the GI50 [29] was 45.1 µM (inactive). The GI50 [30] was 58.1 µM (inactive), the GI50 [31] was 30.9 µM (inactive) and the GI50 [32] was 41.7 µM (inactive). The GI50 [33] was 29.7 µM (inactive), the GI50 [34] was > 100 µM (inactive) and the GI50 [35] was > 100 µM (inactive). The GI50 [36] was 43.8 µM (inactive), the GI50 [39] was 28.9 µM (inactive) and the GI50 [40] was 43.9 µM (inactive). For the same compound, the GI50 [41] was 27.2 µM (inactive), the GI50 [58] was 43.6 µM (inactive) and the GI50 [42] was 69.2 µM (inactive). The GI50 [43] was 19.1 µM (inactive), the GI50 [44] was 49 µM (inactive) and the GI50 [46] was 51.2 µM (inactive). The GI50 [47] was 41.5 µM (inactive), the GI50 [48] was 10.6 µM (inactive) and the GI50 [49] was 71.9 µM (inactive). For the same compound, the GI50 [50] was 22.5 µM (inactive), the GI50 [51] was 51.3 µM (inactive) and the GI50 [52] was 36.6 µM (inactive). The GI50 [53] was > 100 µM (inactive), the GI50 [54] was 39.8 µM (inactive) and the GI50 [55] was 42.7 µM (inactive).
In the case of `CC(=O)N1CCc2c([nH]c3ccc(Br)cc23)C1c1ccccc1` (stereo not given), the GI50 [1] was 3.28 µM (inactive), the GI50 [2] was > 10 µM (inactive) and the GI50 [3] was 0.912 µM (active). The GI50 [4] was > 7.36 µM (inactive), the GI50 [5] was 7.03 µM (inactive) and the GI50 [6] was > 9.53 µM (inactive). The GI50 [7] was 1.47 µM (inactive), the GI50 [8] was > 10 µM (inactive) and the GI50 [9] was > 10 µM (inactive). For the same compound, the GI50 [10] was > 10 µM (inactive), the GI50 [11] was 9.95 µM (inactive) and the GI50 [12] was 1.11 µM (active). For the same compound, the GI50 [13] was 0.194 µM, the GI50 [14] was 2.55 µM (inactive) and the GI50 [15] was 7.55 µM (inactive). For the same compound, the GI50 [16] was > 10 µM (inactive), the GI50 [17] was 5.37 µM (inactive) and the GI50 [18] was > 10 µM (inactive). For the same compound, the GI50 [19] was > 7.33 µM (inactive), the GI50 [20] was 0.752 µM (active) and the GI50 [21] was > 3.41 µM (inactive). The GI50 [22] was 2 µM (inactive), the GI50 [23] was > 10 µM (inactive) and the GI50 [24] was 2.75 µM (inactive). For the same compound, the GI50 [26] was 2.69 µM (inactive), the GI50 [56] was 2.61 µM (inactive) and the GI50 [27] was 0.697 µM (active). For the same compound, the GI50 [28] was > 10 µM (inactive), the GI50 [57] was > 10 µM (inactive) and the GI50 [30] was 0.522 µM (active). For the same compound, the GI50 [31] was > 7.82 µM (inactive), the GI50 [32] was 4.16 µM (inactive) and the GI50 [33] was > 10 µM (inactive). For the same compound, the GI50 [34] was > 10 µM (inactive), the GI50 [35] was > 10 µM (inactive) and the GI50 [36] was > 5.07 µM (inactive). The GI50 [37] was 1.12 µM (active), the GI50 [38] was 2.29 µM (inactive) and the GI50 [39] was > 10 µM (inactive). The GI50 [40] was > 9.02 µM (inactive), the GI50 [41] was 2.4 µM (inactive) and the GI50 [58] was > 6.81 µM (inactive). For the same compound, the GI50 [42] was > 10 µM (inactive), the GI50 [43] was > 10 µM (inactive) and the GI50 [44] was 2.4 µM (inactive). The GI50 [45] was > 7.71 µM (inactive), the GI50 [47] was > 10 µM (inactive) and the GI50 [48] was 7.96 µM (inactive). For the same compound, the GI50 [59] was 733 nM (active), the GI50 [49] was 2.62 µM (inactive) and the GI50 [50] was > 10 µM (inactive). The GI50 [51] was > 10 µM (inactive), the GI50 [52] was 3.69 µM (inactive) and the GI50 [53] was > 10 µM (inactive). The GI50 [54] was > 7.13 µM (inactive) and the GI50 [55] was > 10 µM (inactive).
